# Reference: patent US20040092532A1, “Use of p38 inhibitors for the treatment of smoke inhalation” (priority 2003, published 2004)
# Key:
# [1] = test system: citric acid-induced cough; assay: Citric Acid Induced Cough Model (direct antitussive activity); type: in vivo; details: inhaled citric acid-induced cough, conscious guinea pigs; FIG. 4
# Protocol: The directed antitussive activity of the compound in question if first assessed, by a 10 to 30 minute pretreatment period by intraperitoneal injection or a 1 hour pretreatment period for oral administration. The animals (guinea pigs) are then subjected to an inhaled citric acid-induced cough challenge. Inhalation of citric acid (CA; 0.4% for 1 minute) induced 11 to 15 coughs, during the exposure and 12-minute monitoring period in conscious guinea pigs.
# [2] = test system: antigen-induced hypertussive response to citric acid; assay: Antigen-Induced Hypertussive Model (ovalbumin, citric acid challenge); type: in vivo; details: sensitized guinea pigs exposed to inhaled ovalbumin
# Protocol: The effects of the compound are then assessed on the hypertussive response that occurs 72 hours post aerosol exposure to antigen or LTD4 exposure. Treatment of the animals occurs with the drug prior and/or after antigen or LTD4 challenge, but not on the day of citric acid challenge. Inhalation of citric acid (CA; 0.4% for 1 minute) induced 11 to 15 coughs, during the exposure and 12-minute monitoring period in conscious guinea pigs.
# [3] = test system: LTD4-induced hypertussive response and airway eosinophilia; assay: LTD4-Induced Hypertussive Model (citric acid challenge); type: in vivo, guinea pigs; details: oral 30 mg/kg b.i.d., inhaled LTD4 10 ug/ml for 1 minute, 72 hours after exposure
# Protocol: The effects of the compound are then assessed on the hypertussive response that occurs 72 hours post aerosol exposure to antigen or LTD4 exposure. Treatment of the animals occurs with the drug prior and/or after antigen or LTD4 challenge, but not on the day of citric acid challenge. […] Similarly, inhalation of LTD4 (10 ug/ml for 1 minute) increased cough incidence and airway esoinophiles 72 hours after exposure.
compound,measurement,setting,value
"COc1nccc(-c2c(-c3ccc(F)cc3)ncn2[C@H]2CC[C@H](O)CC2)n1 [Compound I, trans-1-(4-Hydroxycyclohexyl)-4-(4-fluorophenyl)-5-[(2methoxy)pyrimidin-4-yl]imidazole]",direct antitussive effect,[1],no direct antitussive effect
same,airway eosinophilia,[2]; bronchoalveolar lavage,reduce airway eosinophilia
same,hypertussive state (CA-induced cough incidence),[2]; citric acid challenge,normalizes the hypertussive state
same,LTD4-induced eosinophilia,[3],blocked the LTD4-induced esoinophilia
same,cough response after LTD4,[3]; FIG. 5,normalized the cough response
